Measurements taken from patent US20060234323A1, “Luminescent ATP detection with extended linearity” (priority 2005, published 2006).
Where two headings read alike, the source gives them in different places.

How the values were obtained:
[1] = biological target: wild type luciferase from Photinus pyralis (QuantiLum recombinant luciferase) (Photinus pyralis, UniProt P08659); assay type: biochemical
[2] = biological target: thermostable luciferase (Luc146-1H2) (Photuris pensylvanica, UniProt Q27757); assay type: biochemical, Photuris pennsylvanica
thermostable luciferase (Luc146-1H2), sequence (Q27757 whole entry): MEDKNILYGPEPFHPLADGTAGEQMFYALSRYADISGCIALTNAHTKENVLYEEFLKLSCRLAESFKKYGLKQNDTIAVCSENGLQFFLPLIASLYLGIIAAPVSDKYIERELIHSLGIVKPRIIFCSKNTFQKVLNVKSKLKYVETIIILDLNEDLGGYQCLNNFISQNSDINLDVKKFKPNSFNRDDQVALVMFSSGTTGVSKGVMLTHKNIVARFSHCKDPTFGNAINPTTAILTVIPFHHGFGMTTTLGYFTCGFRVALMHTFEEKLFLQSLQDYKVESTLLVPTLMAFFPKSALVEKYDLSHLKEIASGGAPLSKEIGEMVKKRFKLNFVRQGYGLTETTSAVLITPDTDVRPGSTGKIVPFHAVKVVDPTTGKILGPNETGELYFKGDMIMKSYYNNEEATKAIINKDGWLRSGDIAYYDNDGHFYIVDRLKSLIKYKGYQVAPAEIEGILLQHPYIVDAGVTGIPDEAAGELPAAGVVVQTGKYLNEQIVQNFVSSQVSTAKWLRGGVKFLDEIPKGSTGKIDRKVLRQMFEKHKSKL

[3] = NT (no inhibitor), metal salt replacing MgSO4, MgSO4 reactions employed NaATP, read-out: ATP Km
[4] = with AMP + PPi, metal salt replacing MgSO4, MgSO4 reactions employed NaATP, read-out: ATP Km
[5] = with AMP, metal salt replacing MgSO4, MgSO4 reactions employed NaATP, read-out: ATP Km
[6] = with PPi, metal salt replacing MgSO4, MgSO4 reactions employed NaATP, read-out: ATP Km
[7] = No PPi, 1 mM AMP, 2 mM 5′AMPS, 2 mM ADP S, 5 mM dATP, ATP 0 to 1.67 mM
[8] = with 50 μM PPi, 1 mM AMP, 2 mM 5′AMPS, 2 mM ADP S, 5 mM dATP, ATP 0 to 1.67 mM

wild type luciferase from Photinus pyralis (QuantiLum recombinant luciferase), sequence (P08659 whole entry): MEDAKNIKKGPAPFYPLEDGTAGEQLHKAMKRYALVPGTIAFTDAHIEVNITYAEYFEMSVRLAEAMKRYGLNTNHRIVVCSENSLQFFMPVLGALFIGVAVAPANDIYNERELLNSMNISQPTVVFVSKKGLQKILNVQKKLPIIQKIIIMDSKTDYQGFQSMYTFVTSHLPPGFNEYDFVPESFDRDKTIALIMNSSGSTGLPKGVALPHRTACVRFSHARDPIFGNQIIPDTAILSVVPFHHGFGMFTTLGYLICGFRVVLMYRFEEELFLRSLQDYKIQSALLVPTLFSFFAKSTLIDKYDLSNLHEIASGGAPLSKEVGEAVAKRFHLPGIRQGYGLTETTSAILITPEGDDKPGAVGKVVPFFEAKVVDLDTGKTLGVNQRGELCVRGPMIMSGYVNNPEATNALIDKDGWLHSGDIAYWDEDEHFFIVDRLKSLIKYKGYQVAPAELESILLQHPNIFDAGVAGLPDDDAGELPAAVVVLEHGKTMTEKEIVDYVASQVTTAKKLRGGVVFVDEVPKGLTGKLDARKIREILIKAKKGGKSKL

`[Ca+2].[Cl-].[Cl-]` [CaCl2] gave a Km [1, 3] of 1910 µM, a Km [1, 4] of 1040 µM and a Km [1, 5] of 980 µM. For the same compound, the Km [1, 6] was 1450 µM.
For `Nc1ncnc2c1ncn2[C@H]1C[C@H](O)[C@@H](COP(=O)(O)OP(=O)(O)OP(=O)(O)O)O1` [dATP, deoxyadenosine triphosphate], the “increase of the luciferase Km for ATP” value [2] was about 10 fold, the “type of inhibition of luciferase with respect to ATP” value (from here on “type of inhibition of luciferase”) [2] was “competitive inhibitors” and the Km [2, 7] was 127 µM. The Km [2, 8] was 232 µM.
In the case of `O=S(=O)([O-])[O-].[Mg+2]` [MgSO4], the Km [1, 3] is reported as 39 µM, the Km [1, 4] is reported as 93 µM and the Km [1, 5] is reported as 15 µM. It also gave a Km [1, 6] of 128 µM.
`Nc1ncnc2c1ncn2[C@@H]1O[C@H](COP(=O)(O)OP(O)(O)=S)[C@@H](O)[C@H]1O` [ADP S, adenosine 5′-[β-thio] diphosphate] was tested, and the “increase of the luciferase Km for ATP” value [2] was about 10 fold, the “type of inhibition of luciferase” value [2] was “competitive inhibitors” and the Km [2, 7] was 93 µM. For the same compound, the Km [2, 8] was 581 µM.
For `O=P(O)(O)OP(=O)(O)O` [PPi], the “increase of the luciferase Km for ATP” value [2] was at most 2 fold, the “type of inhibition of luciferase” value [2] was “noncompetitive” and the Km ([2]; 50 μM PPi alone (NT row, no adenosine derivative), ATP 0 to 1.67 mM, read-out: Km) was 4 µM. It also gave a Km ([2]; ATP range 0 to 0.09 mM, AMP = 1 mM, PPi = 50 μM, hyperbolic curve fit, read-out: Km for ATP) of 6 µM, a Km ([2]; ATP range 0 to 0.3 mM, AMP = 1 mM, PPi = 50 μM, hyperbolic curve fit, read-out: Km for ATP) of 6 µM and a Km ([2]; ATP range 0 to 0.8 mM, AMP = 1 mM, PPi = 50 μM, hyperbolic curve fit, read-out: Km for ATP) of 6 µM. The Km ([2]; ATP range 0 to 2.5 mM, AMP = 1 mM, PPi = 50 μM, hyperbolic curve fit, read-out: Km for ATP) was 5 µM, the Km ([1]; 0 mM AMP, 50 μM PPi, ATP 0 to 2.5 mM, MgATP, read-out: Km) was 121 µM and the Km ([1]; 0 mM AMP, 100 μM PPi, ATP 0 to 2.5 mM, MgATP, read-out: Km) was 130 µM. The Km ([1]; 0 mM AMP, 200 μM PPi, ATP 0 to 2.5 mM, MgATP, read-out: Km) was 146 µM, the “increase in Km” value ([1]; 200 μM PPi alone, compared to reactions with no PPi or AMP) was 28% and the “type of inhibition of luciferase” value ([1]; native beetle luciferase, in the presence of certain divalent metals) was “competitive”.
In the case of `[Cl][Ni][Cl]` [NiCl2], the “increase of the Km for ATP” value ([2]; non-Mg metal employed with PPi) is reported as “about 10 fold”, the Km [1, 3] is reported as 906 µM and the Km [1, 4] is reported as 1540 µM. The Km [1, 5] was 1100 µM and the Km [1, 6] was 2420 µM.
`[Cl][Mn][Cl]` [MnCl2] was tested, and the Km [1, 3] was 120 µM, the Km [1, 4] was 111 µM and the Km [1, 5] was 44 µM. The Km [1, 6] was 170 µM.
For `Nc1ncnc2c1ncn2[C@@H]1O[C@H](COP(O)(O)=S)[C@@H](O)[C@H]1O` [5′AMPS, adenosine 5′-O-thiomonophosphate], the “increase of the luciferase Km for ATP” value [2] was about 10 fold, the “type of inhibition of luciferase” value [2] was “competitive inhibitors” and the Km [2, 7] was 91 µM. For the same compound, the Km [2, 8] was 1070 µM.
For `[Cl-].[Cl-].[Sr+2]` [SrCl2], the Km [1, 3] was 373 µM, the Km [1, 4] was 2650 µM and the Km [1, 5] was 110 µM. It also gave a Km [1, 6] of 3290 µM.
`[Cl-].[Cl-].[Zn+2]` [ZnCl2] showed a Km [1, 3] of 63 µM, a Km [1, 4] of 2390 µM and a Km [1, 5] of 585 µM. For the same compound, the Km [1, 6] was 109 µM.
With `Nc1ncnc2c1ncn2[C@@H]1O[C@H](COP(=O)(O)O)[C@@H](O)[C@H]1O` [AMP, adenosine monophosphate] the “increase of the luciferase Km for ATP” value [2] was about 10 fold, the “type of inhibition of luciferase” value [2] was “competitive inhibitors” and the Km [2, 7] was 109 µM. It also gave a Km ([2]; read-out: ATP Km, 1 mM AMP, ATP range 0-1.67 mM) of 109 µM, a Km ([2]; read-out: Km for ATP, ATP range 0 to 0.09 mM, AMP = 1 mM, PPi = 50 μM, hyperbolic curve fit) of 232 µM and a Km ([2]; read-out: Km for ATP, ATP range 0 to 0.3 mM, AMP = 1 mM, PPi = 50 μM, hyperbolic curve fit) of 243 µM. For the same compound, the Km ([2]; read-out: Km for ATP, ATP range 0 to 0.8 mM, AMP = 1 mM, PPi = 50 μM, hyperbolic curve fit) was 203 µM, the Km ([2]; read-out: Km for ATP, ATP range 0 to 2.5 mM, AMP = 1 mM, PPi = 50 μM, hyperbolic curve fit) was 115 µM and the Km [2, 8] was 1700 µM. For the same compound, the “decrease in Km” value ([1]; 3 mM AMP alone, compared to reactions with no PPi or AMP) was 65%.
Compound `[Cl-].[Cl-].[Mg+2]` [MgCl2] has a Km [1, 3] of 115 µM, a Km [1, 4] of 213 µM and a Km [1, 5] of 56 µM. The Km [1, 6] was 276 µM.
